Laboratory results reported in PMC2394794 (Journal of Synchrotron Radiation, 2008).
Like-named read-outs stand apart in the source and are kept apart here.

Tests used:
HCV NS3/4A protease [1] = biological target: T1, HCV NS3/4A protease (Hepatitis C virus genotype 1a, UniProt P27958); conditions: experimental over predicted relative Ki*
HCV NS3/4A protease [2] = biological target: T1, HCV NS3/4A protease; assay: Inhibition of HCV NS3/4A protease by ketoamide inhibitors; assay type: biochemical; conditions: P2 = DMCP versus P2 = Leu

T1 sequence (P27958 1658-1711): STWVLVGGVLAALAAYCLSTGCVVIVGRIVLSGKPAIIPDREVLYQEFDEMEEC
T1 sequence (P27958 1027-1208): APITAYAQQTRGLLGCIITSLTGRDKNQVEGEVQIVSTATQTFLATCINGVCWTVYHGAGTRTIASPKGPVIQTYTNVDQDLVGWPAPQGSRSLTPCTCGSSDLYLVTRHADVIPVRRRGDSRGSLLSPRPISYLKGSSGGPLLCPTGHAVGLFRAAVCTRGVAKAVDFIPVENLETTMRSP

CC(C)(C)NC(=O)N[C@H](C(=O)N1C[C@H]2[C@@H]([C@H]1C(=O)NC(CC1CCC1)C(=O)C(N)=O)C2(C)C)C(C)(C)C (stereo partly drawn) [Compd 9, ^tBu–urea–t-Bug–DMCP–c-Bua–CONH2] was tested, and the “Ki* ratio exp./SA” value (HCV NS3/4A protease [1]; P2 series) was 4.1, the “Ki* ratio exp./SA” value (HCV NS3/4A protease [1]; P3 series) was 9.0 and the “increase in potency relative to Leu” value (HCV NS3/4A protease [2]) was 70 fold.
